Here are results for 1 substance from patent US20190127805A1, “GENE SIGNATURES FOR CANCER DETECTION AND TREATMENT” (ALMAC DIAGNOSTICS LIMITED, priority 2016, published 2019).

Where two headings read alike, the source gives them in different places.

For assay [1], the system named is OVCAR3 isogenic cell lines co-cultured with ECFCs. Nature of the assay: In-vivo Matrigel plug angiogenesis assay (micro-vessel density). The settings on record: 5 mg/kg IP; OVCAR3 cisplatin-resistant vs cisplatin-naïve cells, p-value 0.0024 (FIG. 44). More on the design: species or system Athymic nude mice. On the procedure: All animal experiments were performed in conformity to UK Home Office Regulations (PPL2729) and with authorization from Queen's University Belfast Animal Welfare and Ethical Review Body (AWERB). Eight week-old male Athymic nude mice (Harlan Laboratories) were used. ECFC were inoculated at a high density of 2.45×106 and co-cultured with GFP-labelled OVCAR3 WT or GFP-labelled OVCAR3-CP at a density of 1.4×106. The GFP-labelled OVCAR3 WT and GFP-labelled OVCAR3-CP were seeded alone at a density of 1.4×106. Each condition was diluted in 10 μL of phenol red-free DMEM and re-suspended in 90 μL of growth factor-reduced Matrigel (Corning) and injected subcutaneously. After 8 days, mice were sacrificed under isoflurane anaesthesia using 31 gauge needless intraperitoneal (IP) administration of sodium pentobarbital at 200 mg/kg, and implants were removed and fixed in 4% formaldehyde overnight. Fixed Matrigel implants were then embedded in paraffin and 10 μm sections were prepared for staining. For 5 mg/Kg bevacizumab was administered IP once weekly for 14 days. Treatment was commenced on day 3. Mice were sacrificed after a 14-day treatment period as previously described.
IHC and immunofluorescence studies were conducted as previously describe. […] CD31 and αSMA stained vessels were then counted per high power field (200×) in three separate fields of three independent tumors from each group. […]

Assay [2] deals with ovarian cancer. The settings on record: cited from earlier work.
Assay [3] concerns ovarian cancer. The settings on record: cited from earlier work. The source holds these as a separate data set.
In assay [4] the test system is platinum sensitive recurrent ovarian cancer. The settings on record: cited from earlier work.
The test system of assay [5] is platinum resistant epithelial ovarian cancer. The settings on record: cited from earlier work.

As to “bevacizumab: recombinant humanised monoclonal antibody that binds to vascular endothelial growth factor A (VEGF-A)”, the “MVD (micro-vessel density)” value in assay [1] is reported as “less MVD”. Moreover, in the assay with ovarian cancer [2] (standard therapy plus bevacizumab (standard therapy alone 20.3 months)), the “progression free survival (PFS)” value was 21.8 months. Besides, in the assay with ovarian cancer [2] (vs standard therapy, 95% CI 0.70 to 0.94, P=0.004), the “hazard ratio (HR) for PFS” value is listed as 0.81. Further, the “HR for PFS” value with ovarian cancer [3] (bevacizumab cycle 2-6, 95% CI 0.795 to 1.040, P=0.16) is 0.908; with ovarian cancer [3] (bevacizumab plus chemotherapy cycle 2-22, 95% CI 0.625 to 0.824, P<0.001), 0.717. Moreover, the PFS with ovarian cancer [3] (bevacizumab plus standard chemotherapy cycle 2-22 (control 10.3 months)) is recorded as 14.1 months; in the assay with ovarian cancer [3] (bevacizumab with standard chemotherapy cycle 2-6 (control 10.3 months)) it was 11.2 months; in assay [5] (patients treated with bevacizumab and paclitaxel), 9.6 months. For the same substance, the “Median progression free survival” value in assay [4] (bevacizumab + gemcitabine and carboplatin (placebo+GC 8.4 months)) is 12.4 months. For the same substance, in assay [4] (vs placebo+GC, 95% CI 0.388-0.605, p<0.0001), the “HR for progression free survival” value is listed as 0.484. The “objective response rate (ORR)” value in assay [5] (bevacizumab and chemotherapy) was 30.9%. Besides, the overall survival in assay [5] (chemotherapy and bevacizumab arm (chemotherapy alone 13.3 months)) is recorded as 16.6 months. Besides, in assay [5] (single agent chemotherapy and bevacizumab (chemotherapy alone 3.4 months)), the Progression free survival is 6.7 months. Besides, in assay [5] (vs chemotherapy alone, 95% CI 0.32-0.53, p<0.001), the “hazard ratio for progression free survival” value is listed as 0.42. Besides, the “HR for overall survival” value in assay [5] (vs chemotherapy alone, 95% CI 0.69-1.14, not statistically significant) was 0.89.
